Test system: hepatocytes
Test: RNA-seq of hepatocytes treated with Phase III failure compounds
Conditions: hepatocytes
Description: RNA-seq was performed to determine the effects of the compounds on hepatocytes.
Significance was determined by the criteria of FPKM≥0.5, a log 2(fold-change)≥1, and a […].

CCC(CC)[C@H](NC(C)=O)[C@@H]1[C@H](O)[C@@H](C(=O)O)C[C@H]1NC(=N)N.O.O.O [peramivir (trihydrate), peramivir]
RNA-seq results: DOLK expression (gene DOLK): 0.33
RNA-seq results, DPM3 expression (gene DPM3): −0.11
RNA-seq results: DPM3 expression (gene DPM3): 0.68
RNA-seq results, DPYD expression (gene DPYD): −0.21
RNA-seq results: DPYD expression (gene DPYD): −0.43
RNA-seq results, DPYS expression (gene DPYS): −0.01
RNA-seq results: DPYS expression (gene DPYS): −0.27
RNA-seq results, EARS2 expression (gene EARS2): 0.04
RNA-seq results: EARS2 expression (gene EARS2): −0.01
RNA-seq results, EDA expression (gene EDA): −0.03
RNA-seq results: EDA expression (gene EDA): 0.3
RNA-seq results, EHHADH expression (gene EHHADH): −0.10
RNA-seq results: EHHADH expression (gene EHHADH): −0.3
RNA-seq results, ELAC2 expression (gene ELAC2): −0.15
RNA-seq results: ELAC2 expression (gene ELAC2): −0.13
RNA-seq results, ENO3 expression (gene ENO3): 0.30
RNA-seq results: ENO3 expression (gene ENO3): −0.12
RNA-seq results, ENPP1 expression (gene ENPP1): −0.28
RNA-seq results: ENPP1 expression (gene ENPP1): −0.21
RNA-seq results, EPG5 expression (gene EPG5): 0.13
RNA-seq results: EPG5 expression (gene EPG5): 0
RNA-seq results, EPHX1 expression (gene EPHX1): −0.26
RNA-seq results: EPHX1 expression (gene EPHX1): 0.16
RNA-seq results, ERCC4 expression (gene ERCC4): −0.23
RNA-seq results: ERCC4 expression (gene ERCC4): −0.18
RNA-seq results, ERCC6 expression (gene ERCC6): 0.05
RNA-seq results: ERCC6 expression (gene ERCC6): −0.09
RNA-seq results, ETFB expression (gene ETFB): 0.23
RNA-seq results: ETFB expression (gene ETFB): 0.14
RNA-seq results, ETHE1 expression (gene ETHE1): 0.31
RNA-seq results: ETHE1 expression (gene ETHE1): 0.31
RNA-seq results, F2 expression (gene F2): 0.11
RNA-seq results: F2 expression (gene F2): 0.31
RNA-seq results, F2RL1 expression (gene F2RL1): −0.53
RNA-seq results: F2RL1 expression (gene F2RL1): 0.01
RNA-seq results, F5 expression (gene F5): −0.08
RNA-seq results: F5 expression (gene F5): −0.44
RNA-seq results, F9 expression (gene F9): −0.53
RNA-seq results: F9 expression (gene F9): −0.17
RNA-seq results, FABP1 expression (gene FABP1): 0.73
RNA-seq results: FABP1 expression (gene FABP1): −0.05
RNA-seq results, FADD expression (gene FADD): −0.14
RNA-seq results: FADD expression (gene FADD): 0.13
RNA-seq results, FAM111A expression (gene FAM111A): −0.08
RNA-seq results: FAM111A expression (gene FAM111A): −0.05
RNA-seq results, FAM111B expression (gene FAM111B): 0.11
RNA-seq results: FAM111B expression (gene FAM111B): −0.44
RNA-seq results, FAN1 expression (gene FAN1): −0.06
RNA-seq results: FAN1 expression (gene FAN1): −0.14
RNA-seq results, FARS2 expression (gene FARS2): −0.22
RNA-seq results: FARS2 expression (gene FARS2): −0.04
RNA-seq results, FASLG expression (gene FASLG): 1.15
RNA-seq results: FASLG expression (gene FASLG): −0.66
RNA-seq results, FGA expression (gene FGA): −0.25
RNA-seq results: FGA expression (gene FGA): −0.37
RNA-seq results, FGD1 expression (gene FGD1): −0.25
RNA-seq results: FGD1 expression (gene FGD1): 0.14
RNA-seq results, FGFR2 expression (gene FGFR2): −0.13
RNA-seq results: FGFR2 expression (gene FGFR2): −0.42
RNA-seq results, FIG4 expression (gene FIG4): −0.30
RNA-seq results: FIG4 expression (gene FIG4): 0.3
RNA-seq results, FIS1 expression (gene FIS1): 0.44
RNA-seq results: FIS1 expression (gene FIS1): 0.25
RNA-seq results, FTCD expression (gene FTCD): 0.58
RNA-seq results: FTCD expression (gene FTCD): 0.43
RNA-seq results, FTH1 expression (gene FTH1): −0.04
RNA-seq results: FTH1 expression (gene FTH1): 0.7
RNA-seq results, FUCA1 expression (gene FUCA1): −0.23
RNA-seq results: FUCA1 expression (gene FUCA1): 0.07
RNA-seq results, FXN expression (gene FXN): −0.69
RNA-seq results: FXN expression (gene FXN): 0.12
RNA-seq results, G6PC3 expression (gene G6PC3): 0.06
RNA-seq results: G6PC3 expression (gene G6PC3): 0.29
RNA-seq results, G6PC expression (gene G6PC): 0.23
RNA-seq results: G6PC expression (gene G6PC): 0.01
RNA-seq results, G6PD expression (gene G6PD): 0.08
RNA-seq results: G6PD expression (gene G6PD): 0.59
RNA-seq results, GALK1 expression (gene GALK1): 0.18
RNA-seq results: GALK1 expression (gene GALK1): 0.34
RNA-seq results, GALK2 expression (gene GALK2): −0.13
RNA-seq results: GALK2 expression (gene GALK2): −0.11
RNA-seq results, GALT expression (gene GALT): 0.15
RNA-seq results: GALT expression (gene GALT): 0.26
RNA-seq results, GATA6 expression (gene GATA6): −0.08
RNA-seq results: GATA6 expression (gene GATA6): −0.02
RNA-seq results, GATM expression (gene GATM): −0.37
RNA-seq results: GATM expression (gene GATM): −0.37
RNA-seq results, GBA expression (gene GBA): −0.19
RNA-seq results: GBA expression (gene GBA): 0.27
RNA-seq results, GBE1 expression (gene GBE1): −0.20
RNA-seq results: GBE1 expression (gene GBE1): −0.08
RNA-seq results, GCH1 expression (gene GCH1): −0.27
RNA-seq results: GCH1 expression (gene GCH1): −0.25
RNA-seq results, GCKR expression (gene GCKR): 0.29
RNA-seq results: GCKR expression (gene GCKR): 0.32
RNA-seq results, GCLC expression (gene GCLC): −0.18
RNA-seq results: GCLC expression (gene GCLC): −0.14
RNA-seq results, GGCX expression (gene GGCX): 0.10
RNA-seq results: GGCX expression (gene GGCX): −0.22
RNA-seq results, GHR expression (gene GHR): −0.27
RNA-seq results: GHR expression (gene GHR): −0.6
RNA-seq results, GJB2 expression (gene GJB2): −0.37
RNA-seq results: GJB2 expression (gene GJB2): 0.1
RNA-seq results, GLDC expression (gene GLDC): 0.02
RNA-seq results: GLDC expression (gene GLDC): −0.33
RNA-seq results, GLIS3 expression (gene GLIS3): −0.13
RNA-seq results: GLIS3 expression (gene GLIS3): −0.41
RNA-seq results, GLS2 expression (gene GLS2): −0.24
RNA-seq results: GLS2 expression (gene GLS2): −0.06
RNA-seq results, GLYCTK expression (gene GLYCTK): 0.32
RNA-seq results: GLYCTK expression (gene GLYCTK): 0.43
RNA-seq results, GNE expression (gene GNE): −0.21
RNA-seq results: GNE expression (gene GNE): −0.11
RNA-seq results, GNPTAB expression (gene GNPTAB): −0.49
RNA-seq results: GNPTAB expression (gene GNPTAB): −0.13
RNA-seq results, GOSH expression (gene GOSH): −0.17
RNA-seq results: GOSH expression (gene GOSH): 0.44
RNA-seq results, GPC3 expression (gene GPC3): −0.45
RNA-seq results: GPC3 expression (gene GPC3): 0.06

Reference: patent US20210254056A1, “IDENTIFICATION AND TARGETED MODULATION OF GENE SIGNALING NETWORKS” (CAMP4 THERAPEUTICS CORPORATION, priority 2017, published 2021)
